According to patent publication US20230172945A1, “APPLICATION OF COMPOUNDS IN CONTROLLING OR KILLING MITES” (SMILEBIOTEK ZHUHAI LIMITED, priority 2020, published 2023):

Tested on: D. folliculorum
Assay: In-vitro culture of Demodex mites: effect of compounds on survival time
Assay type: cell-based
Details: for survival time of the Demodex mites in vitro: compared with negative control 10% DMSO (80.79±25.34); for survival time of the Demodex mites in vitro / Survival time: 20° C., humidity 96%; for Survival time: in vitro, 35 μL solution in 10% DMSO on glass slide, observed every 2 hours, mean ± spread; for effect on survival time of mites as compared with the control group (in words): versus 10% DMSO negative control
Protocol: The powders of the reference compounds shown in Table 1 were separately dissolved in dimethyl sulfoxide (DMSO), and then diluted with sterilized double-distilled water to make the final concentration of DMSO 10%, which could not shorten the survival time of Demodex mites as per a controlled study. The negative control group received DMSO mixed with sterilized water at a final concentration of 10%.
35 μL of each solution was added to a glass slide, and the survival of the mites was observed under an optical microscope every 2 hours. During the experiment, the Demodex mites were observed by two skilled operators separately for the activities (bodies, limbs and the like) through the microscope to determine whether they were dead or not. If the two operators gave different results, the survival status was determined independently by a third skilled operator. The in-vitro culture was conducted in a climatic chamber at a temperature of 20° C. and a humidity of 96%. During the observation, the glass slides were transported in a wet box to ensure the high humidity.
In this experiment, statistical analysis was conducted using SPSS22.0 statistical software, normality test was conducted using Shapiro-Wilk test, and homogeneity of variance test was conducted using Bartlett's test.
Effects of compounds on survival time of D. folliculorum The in-vitro culture of the Demodex mites was conducted in an environment at a humidity of 96% and a temperature of 20° C. The survival of the Demodex mites was observed dynamically and the survival time was recorded.

Structure (SMILES)	survival time of the Demodex mites in vitro	Survival time [h]	effect on survival time of mites as compared with the control group (in words)
CC1(C)CC[C@]2(C)CC=C3[C@]4(C)CC[C@H]5C(C)(C)[C@@H](O)CC[C@]5(C)[C@H]4CC[C@@]3(C)[C@@H]2C1 [Taraxerol]	37.91±20.96	37.91 ± 20.96	significantly shorten the survival time of mites
C=C[C@H]1[C@H](O[C@@H]2O[C@H](CO)[C@@H](O)[C@H](O)[C@H]2O)OC=C2C(=O)OCC[C@]21O [Swertiamarin]	–	59.68 ± 10.97	–
C[C@@H]1[C@H]2[C@H](O[C@@H]3O[C@H](CO)[C@@H](O)[C@H](O)[C@H]3O)OC=C(C(=O)O)[C@H]2C[C@@H]1O [Loganic acid]	–	61.56 ± 22.84	–
C=C(C)[C@@H]1CC[C@]2(C)[C@H](CC=C3[C@@H]4[C@@H](C)[C@H](C)CC[C@]4(C)CC[C@]32C)[C@@]1(C)CCC(=O)O [Roburic acid]	–	63.41 ± 12.20	–
C=C1CC[C@]2(C)CC[C@]3(C)[C@H](CC[C@@H]4[C@@]5(C)CC[C@H](OC(C)=O)C(C)(C)[C@@H]5CC[C@]43C)[C@H]2[C@@H]1C [Taraxasterol acetate]	37.91±20.96	34.14 ± 22.96	significantly shorten the survival time of mites
COc1ccc(-c2cc(=O)c3c(O)cc(O)cc3o2)cc1O [Diosmetin]	35.92±14.82	35.92 ± 14.82	significantly shorten the survival time of mites
C=C1CC[C@]2(C)CC[C@]3(C)[C@H](CC[C@@H]4[C@@]5(C)CC[C@H](O)C(C)(C)[C@@H]5CC[C@]43C)[C@H]2[C@@H]1C [Taraxasterol]	–	68.28 ± 31.30	–
C=C[C@@H]1C2=CCOC(=O)C2=CO[C@H]1O[C@@H]1O[C@H](CO)[C@@H](O)[C@H](O)[C@H]1O [Gentiopicroside]	37.31±36.06	37.31 ± 36.06	significantly shorten the survival time of mites
C=C[C@H]1[C@H](O[C@@H]2O[C@H](CO)[C@@H](O)[C@H](O)[C@H]2O)OC=C2C(=O)OCC[C@H]21 [Sweroside]	–	60.79 ± 25.98	–
CC(=O)O[C@H]1CC[C@]2(C)[C@H]3CC[C@]4(C)C(=CC[C@@]5(C)CCC(C)(C)C[C@H]54)[C@]3(C)CC[C@H]2C1(C)C [Taraxeryl acetate]	–	70.57 ± 27.45	–
C=C(C)[C@@H]1CC[C@]2(C)CC[C@]3(C)[C@H](CC[C@@H]4[C@@]5(C)CCC(=O)C(C)(C)[C@@H]5CC[C@]43C)[C@@H]12 [Lupenone]	–	66.25 ± 31.22	–
CC1(C)CC[C@]2(C)CC=C3[C@]4(C)CC[C@H]5C(C)(C)C(=O)CC[C@]5(C)[C@H]4CC[C@@]3(C)[C@@H]2C1 [Taraxerone]	–	62.06 ± 28.97	–
